The values that follow come from patent publication US4203986A, “M-Trifluoro-methylphenyl-piperazine” (Metabio-Joullie, priority 1977, dated 1980).

Read-outs that look alike come from different tables or passages of the source.

One data set can be described thus: Acute toxicity in Mice. It counts as in vivo, mice (SWISS, EOPS, NMRI/Han, female). The settings on record: for LD50 at 360 h / MTD at 360 h: mouse, in vivo; for LD50 at 360 h: method of KARBER and BEHRENS; for MTD at 360 h: read-out: LD 0 (maximum dose tolerated). As for the experimental part:
The compounds are administered in increasing doses (in arithmetic progression) to groups of five .female. SWISS, EOPS, NMRI/Han mice of the EVIC CEBA strain and having a mean weight of 22 g.
For intravenous administration the compounds are dissolved in distilled water, for oral administration they are suspended in 10% gum arabic solution (volume administered: 0.5 ml/22 g body weight).
The LD 50's are calculated according to the method of KARBER and BEHRENS (B.) (Arch. Exp. Path. Pharmakol. 1935, 177, 379-388).
For each administration method, there is indicated:
LD 0 or maximum dose tolerated.
LD 100 or minimum lethal dose.
The number of animals surviving in the different groups is definitively verified 15 days after administrating the compounds.

Data set [1] in a line: Test on the cataleptic action in rats. The note with it: p.o., every 30 minutes for 6 hours. It counts as in vivo. As to the method: (7) Test on the cataleptic action in rats (groups of 5 animals)
After administration p.o. of the test compounds, the degree of catalepsy is noted every 30 minutes for 6 hours by the test of crossing of the homolateral feet according to BOISSIER (J.R.) and SIMON (P.) (Therapy, 1963, 18, 1257-1277) and using the following notation:
0=animal which is not cataleptic
132 animal conserving position on one side only
2=animal conserving position on both sides

The test system of data set [2] is coughing induced by aqueous citric acid aerosol. Put plainly: Antitussive action in the guinea pig (citric acid aerosol). It counts as in vivo. The text has this:
The technique used is that of SIECKMANN (W.) (in "Notions techniques de Pharmacologie generale" by Michel COLOT, page 75, Masson, Edit, 1972).
The guinea pigs .female. of mean weight 400 g, unanaesthesised, are subjected to the tussigenic effect of aerosols of a 7.5% aqueous citric acid solution. The animals are placed one by one in a cylindrical chamber having at its two extremities two canals, one serving as entrance for the aerosol and the other as its exit.
On the exit tube there is a lateral connection to a MERCURY gas pressure differential gauge joined to an RACIA counter. An adjustable screw clamp placed on the exit tube downstream of the lateral canal permits regulation of the sensitivity of the system such that the normal respiration of the animal only registers very weakly and that displacement of air in the chamber provoked by coughing attack is recorded clearly in the form of vertical traces.
Each guinea pig is first submitted to a control test for 5 minutes. One hour later it receives the test compound. It is replaced in the chamber for 5 minutes, 1 hour after oral administration of the compound.
The number of coughing attacks before and after administration is counted and the percentage inhibition is calculated.

Data set [3] deals with toxicity of amphetamine compounds. Put plainly: Action on the toxicity of Amphetamine compounds in the mice. Format: in vivo. The note with it: per os. As to the method:
(6) Action on the toxicity of Amphetamine compounds in the mice. (groups of 10 animals)
30 minutes after administration of the test compounds, amphetamine bitartrate is injected interperitioeally at a dose of 10 mg/kg (dose giving substantially 100% mortality) to mice in groups of 10 in boxes 12×18×13 cm. The number of animals surviving 24 hours after the amphetamine administration is noted.

Data set [4] relates to coughing by stimulation of the superior larynx nerve. Put plainly: Antitussive action in the cat (stimulation of the superior larynx nerve). It counts as in vivo. The note with it: 12 mg/kg i.v. As for the experimental part: The cats all thriving, male or female of weight between 1.5 and 2.5 kg (test on 10 cats) are anaesthesised by nembutal at a dose of 30 mg/kg interperitoneally.
A cannula having three branches is placed in the trachea. Two of the branches are connected to a device for registering intratracheal pressure (MERCURY gas pressure gauge connected to an RACIA polygraph) The third branch allows elimination of part of the respiratory volume.
A cannula is placed in the femoral vein for administration of the test substances.
The stimulation parameters are as follows: frequency: 5 cycles per sec, amplitude: 5 millisec, voltage: 4 to 6 volts, duration: 15 to 45 sec. (according to the sensitivity of the animal).
There are carried a minimum of 3 stimulations spaced by 5 minutes and provoking coughing attacks of the same severity. The compound is then administered intravenously. The stimulation is then carried out every 5 minutes. If the compound reduces or suppresses the coughing the stimulation is continued until the reappearance of coughing to approximately the same degree as the initial coughing.
The results are expressed as a percentage reduction in the number of coughs.

In general, LD50 refers to the dose at which mortality reaches 50%.

As for `O=C1CCCCC1CN1CCN(c2cccc(C(F)(F)F)c2)CC1` (centres unmarked) [LJ 1144], the “LD 100 (minimum lethal dose)” value was determined as 75 mg/kg in “Acute toxicity in Mice” (intravenous administration) and 2250 mg/kg in the data set “Acute toxicity in Mice” (oral administration). Moreover, the LD50 at 360 h in the data set “Acute toxicity in Mice” (iv, intravenous administration) was 61 mg/kg; in the data set “Acute toxicity in Mice” (po, oral administration) it was 1820 mg/kg. The MTD at 360 h was found to be 37.5 mg/kg in “Acute toxicity in Mice” (iv, intravenous administration) and 1250 mg/kg in the data set “Acute toxicity in Mice” (po, oral administration). For the same molecule, the cataleptic effect result in data set [1] is recorded as “absence of cataleptic effect”. Also, the inhibition in vivo at 182 mg/kg in data set [2] (Cavia porcellus, po, 1 h, 182 mg/kg p.o., read-out: Percentages of inhibition of coughing) came to 75%. Moreover, the “antitussive activity (in words)” value in data set [2] (oral) is recorded as “also active if not more active than codeine”. Moreover, in data set [3], the “toxicity of amphetamine compounds (in words)” value is listed as “reduce the toxicity of amphetamine compounds”. In data set [4], the “% maximum reduction in the number of coughs” value amounted to 85%.

As to `O=C1CCCC1CN1CCN(c2cccc(C(F)(F)F)c2)CC1` (centres unmarked) [LJ 1160], the “LD 100 (minimum lethal dose)” value in the data set “Acute toxicity in Mice” (intravenous administration) was found to be 87.5 mg/kg; in “Acute toxicity in Mice” (oral administration), 1500 mg/kg. For the same molecule, the LD50 at 360 h in “Acute toxicity in Mice” (iv, intravenous administration) was 74 mg/kg; in “Acute toxicity in Mice” (po, oral administration), 975 mg/kg. Also, the MTD at 360 h worked out at 62.5 mg/kg in “Acute toxicity in Mice” (iv, intravenous administration) and 500 mg/kg in the data set “Acute toxicity in Mice” (po, oral administration). The cataleptic effect result in data set [1] was “absence of cataleptic effect”. Besides, in data set [2] (Cavia porcellus, po, 1 h, 100 mg/kg p.o., read-out: Percentages of inhibition of coughing), the inhibition in vivo at 100 mg/kg was 50%. The “toxicity of amphetamine compounds (in words)” value in data set [3] is “reduce the toxicity of amphetamine compounds”.
